# Results from article PMC10955247, “In vivo screening for toxicity-modulating drug interactions identifies antagonism that protects against ototoxicity in zebrafish” (Frontiers in Pharmacology, 2024).
# pEC50: −log10 of the molar value. Where a name gives a salt, the structure may show the parent alone.
# Legend:
# [1] = system: zebrafish lateral line hair cells; experiment: Standard assay: manual hair cell counting from individual neuromasts (confocal); type: in vivo, Danio rerio; conditions: same representative experiment as PEPITA curve; read-out: EC50 (Standard Assay, normalized HC counts from individual neuromasts)
# Experimental: To prepare the fish for confocal microscopy, fish were fixed in 2% paraformaldehyde for 1 hour at room temperature as described previously ([Philip et al., 2018]), before being transferred to fluoromount and mounted between two glass coverslips. To avoid crushing the fish, a dot of nail polish was placed on each corner of the coverslip so that the top coverslip sat slightly above the bottom coverslip where the fish was mounted. Fluorescent confocal microscopy was performed using a Leica Stellaris 8 microscope. Cranial lateral line neuromasts of each fish were imaged under an HC PL APO CS2 40x/1.30 oil objective with a 405 nm laser and 541/47 emission filter. Images were taken as z-stacks in 0.66 µm steps. Stacks were transformed into average intensity projections and prepared for visual analysis in ImageJ.
# For hair cell survival quantification from individual neuromasts, trained observers counted surviving hair cells in confocal images of neuromasts of larvae that had been treated with various doses of neomycin. Two to eight neuromasts were scored per condition, and counts for each neuromast were averaged between two scorers. These counts were divided by previously characterized mean hair cell counts ([Harris et al., 2003]), matched by anatomical position, to yield a position-scaled measure of HCs present in each neuromast. […]
# [2] = system: zebrafish lateral line hair cells; experiment: Lateral line hair cell intracellular calcium imaging and cell death; type: in vivo
# Text: For calcium testing, zebrafish expressing HC-specific GCaMP targeted to the inner mitochondrial matrix were crossed with fish expressing a HC specific calcium indicator to create double-transgenic embryos (Tg (myo6b:mitoGCaMP3;myo6b:cytoRGECO), Table 1) with both green fluorescent mitochondrial calcium and red fluorescent cytosolic calcium indicators, then raised as described previously ([McQuate et al., 2023]). Zebrafish embryos were collected from 2-h spawning periods and raised in Petri dishes in embryo medium (EM: 14.97 mM NaCl, 500 μM KCl, 42 µM Na2HPO4, 150 µM KH2PO4, 1 mM CaCl2 dehydrate, 1 mM MgSO4, 0.714 mM NaHCO3, pH 7.2) at a density of 60 larvae per […] dish, in a dark 28.5°C incubator until 5 dpf. Larvae were screened for indicator expression at 4 dpf.
# Calcium imaging was performed using an inverted Marianas spinning disk confocal system (Intelligent Imaging Innovations, 3i) with an Evolve 10 MHz EMCCD camera (Photometrics) and a Zeiss C-Apochromat 63x/1.2 numerical aperture water objective. Larvae were 5-6 dpf at the time of imaging. Larvae were first anesthetized in embryo media containing 800 µM tricaine, then stabilized on their sides under a harp, so that posterior neuromasts were exposed to the surrounding media. Imaging was performed at ambient temperature, approximately 25°C. GCaMP fluorescence was acquired with a 488 nm laser and 535/30 emission filter, with an exposure time of 100 ms, and RGECO fluorescence was acquired with a 561 nm laser and 617/73 emission filter and exposure time of 200 ms. Images were taken every 2 minutes as z-stacks through neuromasts in 2 µm steps. Neomycin and azithromycin were dissolved as a 4X stock in EM (described in Section 2.1: Zebrafish Husbandry), then added to the bath to achieve final working concentration after a 10-min baseline. Imaging of neuromasts continued for 50 min. Images were analyzed in ImageJ. Mean fluorescence intensity was measured for ROIs of individual randomly selected HCs (2–3 HCs per NM, see example ROI in Figure 4). For each HC, values were normalized to the average of baseline using Microsoft Excel.
# [3] = system: zebrafish lateral line hair cells; experiment: Ototoxic dose response in myo6b::gfp zebrafish larvae; type: in vivo, Danio rerio; conditions: myo6b::gfp fish; read-out: dose required to elicit 50% of maximal HC damage (EC50)
# Experimental: For drug dose response testing, zebrafish of the wildtype genetic background AB (Table 1) and fish that were transgenic for GFP under the myo6b HC-specific promoter (Tg (myo6b:EGFP), Table 1) were raised as described previously ([Westerfield, 2007]; [Farr et al., 2020]). […]
# The resulting images were analyzed for dose-response and drug interaction characteristics with the PEPITA software package, which can be found on GitHub (https://github.com/ma-lab-cgidr/PEPITA-tools). […] Manual masks were created on occasion for avoidance of fluorescent contamination, adjusted segmenting for myo6b::gfp fish to remove inner ear HC fluorescence, or exclusion of dead or damaged fish. Each fish was then adjusted for autofluorescence using the fluorophore-free red channel and scored based on the sum of green fluorescence pixel values surrounding 10 of the top 15 brightest pixels in the masked image (Figures 1B–E). These scores were standardized by comparison with the median score of wells containing untreated fish and a score representing no remaining HC fluorescence, both derived for each plate. […]
# To further explore the mechanism of macrolide and aminoglycoside antagonism, we fluorescently labeled the aminoglycosides neomycin and gentamicin with Texas Red-X succinimidyl ester to track HC uptake with and without macrolide treatment (Table 1). […] Drug-induced injury was quantified by loss of fluorescence in HCs. […]
smiles,measurement,setting,value
"NC[C@@H]1O[C@H](O[C@H]2[C@@H](O)[C@H](O[C@@H]3[C@@H](O)[C@H](N)C[C@H](N)[C@H]3O[C@H]3O[C@H](CN)[C@@H](O)[C@H](O)[C@H]3N)O[C@@H]2CO)[C@H](N)[C@@H](O)[C@@H]1O [Neomycin, Neomycin sulfate hydrate]",pEC50,[1],5.70
same,HC mitochondrial and cytoplasmic calcium response,"[2]; NEO 50 µM, AZM 190 µM, mitoGCaMP3, cytoRGECO larvae",induced an increase in mitochondrial
same,"HCs that went on to die, of those analyzed",[2]; NEO alone 50 µM,66%
same,cells that went on to die,"[2]; drug alone, calcium imaging",14/21
same,pEC50,[3],4.70
